Measurements: patent publication US8691764B2, “Inhibitors of NF-κB activity” (The Research Foundation for the State University of New York, priority 2007, dated 2014)

Key:
[1] = test system: annexin 1; test: Annexin 1 levels in small intestine epithelial cells of treated Min and wild-type mice; type: in vivo; conditions: NO-ASA 100 mg/kg or Dex 10 mg/kg daily for 7 days
Protocol: (§1) To assess whether these changes occur in vivo, the inventors studied isolated small intestine epithelial cells from Min mice and the corresponding wild type mice C57BL/6J (of which the Min mice are a congenic derivative) treated with NO-ASA 100 mg/kg or Dex 10 mg/kg daily for 7 days. Min (multiple intestinal neoplasia), a mutant allele of the murine APC (adenomatous polyposis coli) locus, encodes a nonsense mutation at codon 850. Heterozygous Min mutants spontaneously develop tumors in the intestine and represent a model of intestinal carcinogenesis (M. Lipkin et al., Ann. N.Y. Acad. Sci. 889:14-19 (1999); A. Moser, H. Pitot, W. Dove, Science 247:322-324 (1990)). The levels of annexin 1 were increased in both Min and wild-type mice treated with either NO-ASA or Dex (FIG. 7A and FIG. 8A). The induction of annexin 1 by NO-ASA or Dex was accompanied by the inhibition of NF-κB activity (FIGS. 7B and 8B).
(§2) A mouse model of multiple intestinal neoplasia, the Min mice, and the congenic parent wild-type mice were used to test the in vivo action of NO-ASA in the induction of annexin 1. Both wild-type and Min mice were treated for 7 days with vehicle or NO-ASA 100 mg/kg. After 7 days of treatment, the mice were sacrificed and the epithelial cells were evaluated as in Example 6 by confocal microscopy.

[2] = test system: NF-κB; test: NF-κB activity in treated Min and wild-type mice; type: in vivo; conditions: NO-ASA 100 mg/kg or Dex 10 mg/kg daily for 7 days
Protocol: as §1, §2

[3] = test system: NF-κB p65; test: Co-immunoprecipitation of annexin 1 with p65, HT-29 cells; type: cell-based, human; conditions: 3 h, NO-ASA 20 μM or Dex 4 μM
Protocol: The gel shift assays were carried out according to the manufacturer's protocol (Panomics). Nuclear proteins (10 μg) from each sample were mixed with 10 ng biotinylated p65 double-stranded oligonucleotide probes (5′-[…]-3′ and its complement) (SEQ ID NO:9) in the presence of 1 μg Poly(I/C) DNA. The mixture was incubated at room temperature for 30 min. The binding complex was then resolved using a 6% polyacrylamide/glycerol gel in 0.5% Tris-borate-EDTA, transferred onto a nylon membrane, and fixed on the membrane by UV cross-linking The biotin-labeled probe was detected with streptavidin-horseradish peroxidase. Co-immunoprecipitation was performed as follows: about 500 μg of cell extracts were incubated overnight with 5 μg of agarose-conjugated anti-p65 (Santa Cruz Biotechnology) or anti-annexin 1 antibody (Santa Cruz, Calif.). The precipitate was washed five times with washing buffer (Santa Cruz Biotechnology), dissolved in 2× Laemmli buffer, boiled, and separated by SDS-PAGE and detected by Western blot analysis using ECL™ (Amersham Biosciences) as described above. Control experiments were performed by using rabbit IgG for p65 and mouse IgG2b for annexin 1, respectively (Santa Cruz Biotechnology).

**Q.** nitric oxide-donating aspirin [NO-ASA] was tested. Which “levels of annexin 1” value ([1]; Min mice) did it give?
**A.** The value was “increased”.

**Q.** What about the “levels of annexin 1” value ([1]; wild-type mice) of the same substance?
**A.** Its value is “increased”.

**Q.** What about the NF-κB activity ([2]; Min mice) of the same substance?
**A.** The NF-κB activity was “inhibited NF-κB activity”.

**Q.** What about the NF-κB activity ([2]; wild-type mice) of the same substance?
**A.** Its NF-κB activity is “inhibited NF-κB activity”.

**Q.** And the “co-immunoprecipitation of annexin 1 with p65” value [3]?
**A.** Its value is “co-immunoprecipitated with p65”.
